The source of these data is US20260284005A1, “INHIBITING MITOGEN-ACTIVATED PROTEIN (MAP)/ERK KINASE (MEK)1 AND MEK2 AND RELATED METHODS OF TREATMENT” (priority 2023, published 2026).

The structures appear in SMILES notation. Where two headings read alike, the source gives them in different places.

The test system of data set [1] is tumor models (cell lines). Put plainly: Humanized 3D tumor growth assay (3D-TGA), tumor model panel / other cell lines. It is filed as cell-based, human. The note with it: Homo sapiens, agent alone. The source says: The humanized 3D tumor growth assay (3D-TGA) is an extracellular matrix (ECM)-based, 3D tumor model that more faithfully mimics the human tumor microenvironment (TME) with the goal of improving translational fidelity to patients. See Casneuf T, et al., “Interleukin-6 is a potential therapeutic target in interleukin-6 dependent, estrogen receptor-α-positive breast cancer,” Breast Cancer (Dove Med Press). […] MEK inhibition in the 3D-TGA. […]
All cell lines were validated by IDEXX upon receipt and assay setup. See Appendix for full cell line list.
(§1) Cells were seeded in 3D cultures in a black-walled, clear-bottom, non-tissue culture treated, 384-well plate (3000 cells per well) using a 1:1 mixture of BME and a custom media and grown in a humidified incubator with 5% CO2 and 5% O2, which approximates capillary levels for each gas, at 37° C. […] Cells were assessed for cell proliferation using EdU cell proliferation staining. […] Cells were permeabilized with 30 μL of filtered 0.5% Triton X-100 in PBS for 20 minutes at room temperature. Samples were washed twice gently with PBS. Cells were stained utilizing click-iT chemistry by adding 20 μL of staining cocktail containing 2 mM copper sulfate, 8 μM sulfo-Cy5-azide, and 20 mg/ml ascorbic acid in PBS and incubated 30-60 minutes at room temperature in dark. […] Plates were imaged with the Molecular Devices Pico ImageXpress. Images were segmented and percentage of cells with EdU incorporation was quantified to calculate antiproliferative effects of the drugs.
(§2) Five (5)-ethynyl-2′-deoxyuridine (EdU) data was represented as percentage EdU positive cells quantified by high content imaging from the Molecular Devices ImageXpress® Pico.

The subject of a further data set is NCI-H1792 cells. Put plainly: 3D-TGA. In kind it is cell-based, human. The note with it: Homo sapiens, NCI-H1792, LUN, KRAS G12C.
Another data set has as its system NCI-H358 cells. Put plainly: 3D-TGA. In kind it is cell-based, human. As to conditions: Homo sapiens; NCI-H358, LUN, KRAS G12C; read-out: IC50 in 3D-TGA, KRAS G12C inhibitor alone.
For the next data set, the system named is NCI-H2122 cells. Put plainly: 3D-TGA. It is filed as cell-based, human. As to conditions: Homo sapiens, NCI-H2122, read-out: IC50 in 3D-TGA, KRAS G12C inhibitor alone. As for the experimental part:
as §1, §2

Another data set deals with NCI-H2030 cells. Briefly: 3D-TGA. In kind it is cell-based, human. As to conditions: Homo sapiens, NCI-H2030, read-out: IC50 in 3D-TGA, KRAS G12C inhibitor alone. As for the experimental part:
as §1, §2

Another data set relates to LU99 cells. Put plainly: 3D-TGA. As to conditions: Homo sapiens, Lu-99, read-out: IC50 in 3D-TGA, KRAS G12C inhibitor alone. It is filed as cell-based, human. As for the experimental part:
as §1, §2

A further data set relates to HCC-44 cells. Briefly: 3D-TGA. As to conditions: Homo sapiens, HCC44, read-out: IC50 in 3D-TGA, KRAS G12C inhibitor alone. In kind it is cell-based, human. As for the experimental part: as §1, §2
The next data set deals with HT-29 cells. Briefly: 3D-TGA. It is filed as cell-based, human. The note with it: Homo sapiens, HT-29, read-out: IC50 in 3D-TGA, agent alone. As for the experimental part: as §1, §2
For the next data set, the system named is SNU-1197 cells. Put plainly: 3D-TGA. In kind it is cell-based, human. As to conditions: Homo sapiens, read-out: IC50 in 3D-TGA, agent alone. As for the experimental part:
as §1, §2

The next data set concerns RCM-1 cells. Put plainly: 3D-TGA. In kind it is cell-based, human. The note with it: Homo sapiens, RCM-1, read-out: IC50 in 3D-TGA, agent alone. As for the experimental part: as §1, §2
The next data set relates to PANC-1 cells. Put plainly: 3D-TGA. It is filed as cell-based, human. The note with it: Homo sapiens; PANC-1, PAN, KRAS G12D; read-out: IC50 in 3D-TGA, agent alone. As for the experimental part: as §1, §2
In another data set the test system is LS1034 cells. Put plainly: 3D-TGA. It is filed as cell-based, human. The note with it: Homo sapiens, LS-1034; LS1034, COL, KRAS A146T; read-out: IC50 in 3D-TGA, agent alone. The procedure: as §1, §2
A further data set relates to CL-40 cells. Briefly: 3D-TGA. It is filed as cell-based, human. The note with it: Homo sapiens, read-out: IC50 in 3D-TGA, agent alone. As for the experimental part:
as §1, §2

The subject of the next data set is SW626 cells. Briefly: 3D-TGA. In kind it is cell-based, human. The note with it: Homo sapiens, SW626, read-out: IC50 in 3D-TGA, agent alone. The procedure:
as §1, §2

For another data set, the system named is NCI-H2087 cells. Put plainly: 3D-TGA. It is filed as cell-based. The note with it: Homo sapiens, NCI-H2087, LUN, NRAS Q61K, ALK S553A, agent alone. As for the experimental part: as §1, §2
For a further data set, the system named is CORL23 cells. Briefly: 3D-TGA. In kind it is cell-based. The note with it: Homo sapiens, COR-L23, CORL23, LUN, KRAS G12V, ALK R317T, agent alone. The procedure:
as §1, §2

The test system of data set [2] is MIA PaCa-2 (KRAS G12C) pancreatic xenograft. Briefly: MIA PaCa-2 pancreatic xenograft tumor model. The note with it: MIA PaCa-2 KRAS G12C xenograft, 21 days. In kind it is in vivo, athymic nude mice. From the text: Gemcitabine (antimetabolite), nab-paclitaxel (taxane) and fluorouracil (5-FU; antimetabolite) were commercially purchased. All studies started with 12 animals, per group. Mice within specific groups randomized for cross-over of treatments (≥day 42). […] Additive models: MIA PaCa-2, PA-TU-8988S, CFPAC-1, HPAF-II, Panc 03.27, PSN-1, Panc 10.05, Capan-1, HPAC, PANC-1.

The test system of another data set is A549 cells. Put plainly: 3D-TGA. It is filed as cell-based, human. The note with it: Homo sapiens; A549, LUN, KRAS G12S; agent alone; read-out: IC50 in 3D-TGA Talazoparib. As for the experimental part: as §1, §2
[3] abbreviates: read-out: IC50 in 3D-TGA, KRAS G12C inhibitor alone.
The mark [4] stands for this setting: read-out: IC50 in 3D-TGA Brigatinib.
Setting [5] is: read-out: IC50 in 3D-TGA Lorlatinib.

For orientation: IC50 means the concentration that gives 50% inhibition. `Nc1ncn([C@@H]2O[C@H](CO)[C@@H](O)[C@H]2O)c(=O)n1` [Azacitidine, azacitidine]: the IC50 in data set [1] (HL-60, HL-60, AML, NRAS Q61L, read-out: IC50 in 3D-TGA Azacitidine) was 1 µM; in [1] (KHM-1B, MM, NRAS G12C/KRAS G12C, read-out: IC50 in 3D-TGA Azacitidine), 0.1 to 0.5 µM; in data set [1] (NB4, AML, KRAS Amp, read-out: IC50 in 3D-TGA Azacitidine), 1 µM; in data set [1] (OCI-AML-3, OCI-AML3, AML, NRAS Q61L, read-out: IC50 in 3D-TGA Azacitidine) it was 1 µM; in data set [1] (PL-21, PL-21, AML, KRAS A146V, read-out: IC50 in 3D-TGA Azacitidine), 0.5 to 1 µM; in data set [1] (TF-1, AML, NRAS Q61P, read-out: IC50 in 3D-TGA Azacitidine), 1 µM. The IC50 in data set [1] (THP-1, THP-1, AML, NRAS G12D, read-out: IC50 in 3D-TGA Azacitidine) came to 1 µM.

For the molecule `C=C(F)C(=O)N1CCN(c2nc(OC[C@@H]3CCCN3C)nc3c2CCN(c2cccc4cccc(Cl)c24)C3)C[C@@H]1CC#N` [adagrasib], the IC50 with NCI-H1792 cells (setting [3]) is above 1 µM; with NCI-H358 cells, 0.05 to 0.1 µM; in the data set with NCI-H2122 cells it was above 1 µM; in the data set with NCI-H2030 cells it was below 0.05 µM; with LU99 cells, above 1 µM; with HCC-44 cells it was above 1 µM.

`CC(=O)O[C@H]1C(=O)[C@@]2(C)[C@H]([C@H](OC(=O)c3ccccc3)[C@]3(O)C[C@H](OC(=O)[C@H](O)[C@@H](NC(=O)c4ccccc4)c4ccccc4)C(C)=C1C3(C)C)[C@]1(OC(C)=O)CO[C@@H]1C[C@@H]2O` [Paclitaxel, paclitaxel]: the IC50 in the data set with HT-29 cells is below 0.05 µM; in the data set on SNU-1197 cells it was 0.1 to 0.5 µM; in the data set with RCM-1 cells, 0.1 to 0.5 µM; with PANC-1 cells, 1 µM; in the data set with LS1034 cells, 1 µM; in the data set on CL-40 cells it was below 0.05 µM. Moreover, the IC50 in the data set with SW626 cells was below 0.05 µM.

With `COc1cc(N2CCC(N3CCN(C)CC3)CC2)ccc1Nc1ncc(Cl)c(Nc2ccccc2P(C)(C)=O)n1` [Brigatinib, brigatinib], the half-maximal inhibitory concentration (IC50) with NCI-H2087 cells (setting [4]) and in the data set on CORL23 cells (setting [4]) was 1 µM in each case.

For the molecule `C=CC(=O)N1CCN(c2nc(=O)n(-c3c(C)ccnc3C(C)C)c3nc(-c4c(O)cccc4F)c(F)cc23)[C@@H](C)C1` [sotorasib], the concentration for half-maximal inhibition (IC50) is above 1 µM in the data set on NCI-H1792 cells (setting [3]); 0.1 to 0.5 µM in the data set with NCI-H358 cells; above 1 µM in the data set with NCI-H2122 cells; below 0.05 µM with NCI-H2030 cells; above 1 µM with LU99 cells; above 1 µM with HCC-44 cells. Besides, the BWL entry in [2] is listed as “insignificant BWL”.

As to `CC(C)C[C@H](NC(=O)[C@H](Cc1ccccc1)NC(=O)c1cnccn1)B(O)O` [Bortezomib, bortezomib], the IC50 in data set [1] (KHM-1B, MM, NRAS G12C/KRAS G12C, read-out: IC50 in 3D-TGA Bortezomib) is 0.5 to 1 µM; in data set [1] (L-363, L-363, MM, NRAS Q61H, read-out: IC50 in 3D-TGA Bortezomib), 1 µM; in data set [1] (MM1.S, MM.1S, MM, KRAS G12A, read-out: IC50 in 3D-TGA Bortezomib) it was 0.05 to 0.1 µM; in data set [1] (RPMI-8226, RPMI-8226, MM, KRAS G12A, read-out: IC50 in 3D-TGA Bortezomib) it was 0.1 to 0.5 µM.

On to `COc1cccc2c1C(=O)c1c(O)c3c(c(O)c1C2=O)C[C@@](O)(C(C)=O)C[C@@H]3O[C@H]1C[C@H](N)[C@H](O)[C@H](C)O1` [Daunorubicin, daunorubicin], for which the IC50 in data set [1] (HL-60, HL-60, AML, NRAS Q61L, read-out: IC50 in 3D-TGA Daunorubicin) came out at 0.0676 µM; in [1] (NB4, AML, KRAS Amp, read-out: IC50 in 3D-TGA Daunorubicin), 0.0632 µM; in data set [1] (OCI-AML-3, OCI-AML3, AML, NRAS Q61L, read-out: IC50 in 3D-TGA Daunorubicin), 0.028 µM; in data set [1] (PL-21, PL-21, AML, KRAS A146V, read-out: IC50 in 3D-TGA Daunorubicin), 0.0641 µM; in data set [1] (TF-1, AML, NRAS Q61P, read-out: IC50 in 3D-TGA Daunorubicin), 0.0562 µM; in [1] (THP-1, THP-1, AML, NRAS G12D, read-out: IC50 in 3D-TGA Daunorubicin), 0.119 µM.

`C[C@H]1Oc2cc(cnc2N)-c2c(nn(C)c2C#N)CN(C)C(=O)c2ccc(F)cc21` [Lorlatinib]: the IC50 in the data set on NCI-H2087 cells (setting [5]) and in the data set with CORL23 cells (setting [5]) was 1 µM in each case.

As for `Cn1ncnc1[C@H]1c2n[nH]c(=O)c3cc(F)cc(c23)N[C@@H]1c1ccc(F)cc1` [Talazoparib, talazoparib], the IC50 is 0.5 to 1 µM in the data set on NCI-H1792 cells (agent alone, read-out: IC50 in 3D-TGA Talazoparib); above 1 µM in [1] (HL-60, HL-60, AML, NRAS Q61L, read-out: IC50 in 3D-TGA Talazoparib); above 1 µM in [1] (NCI-H1734, NCI-H1734, LUN, KRAS G13C, read-out: IC50 in 3D-TGA Talazoparib); above 1 µM in data set [1] (THP-1, THP-1, AML, NRAS G12D, read-out: IC50 in 3D-TGA Talazoparib); above 1 µM in the data set with A549 cells.

Take `Nc1ncn([C@H]2C[C@H](O)[C@@H](CO)O2)c(=O)n1` [Decitabine, decitabine]: the IC50 in data set [1] (HL-60, HL-60, AML, NRAS Q61L, read-out: IC50 in 3D-TGA Decitabine) stood at 1 µM; in data set [1] (NB4, AML, KRAS Amp, read-out: IC50 in 3D-TGA Decitabine), 1 µM; in [1] (OCI-AML-3, OCI-AML3, AML, NRAS Q61L, read-out: IC50 in 3D-TGA Decitabine), 1 µM; in data set [1] (PL-21, PL-21, AML, KRAS A146V, read-out: IC50 in 3D-TGA Decitabine), 1 µM; in data set [1] (TF-1, AML, NRAS Q61P, read-out: IC50 in 3D-TGA Decitabine), 0.05 µM; in data set [1] (THP-1, THP-1, AML, NRAS G12D, read-out: IC50 in 3D-TGA Decitabine), 1 µM.
